Where “and” joins values, the source holds several entries; their conditions need not be identical. Identical values can stand only once.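 A five-concentration, 48-hour dose response in 96-well plates underlies each endpoint, interpolated linearly between surrounding concentrations. Here, GI50 denotes the concentration required for 50% inhibition of growth. TGI: concentration producing complete growth inhibition.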
Columns and labels:
Assay in all cases: NCI anticancer screen, dose series, 48 h
HOP-62 NSCLC = test system: HOP-62 NSCLC
HCC-2998 colon = test system: HCC-2998 colon
NCI-H226 lung = test system: NCI-H226 lung
UACC-257 melanoma = test system: UACC-257 melanoma
CAKI-1 renal = test system: CAKI-1 renal
HCT-116 colon = test system: HCT-116 colon
NCI-H522 lung = test system: NCI-H522 lung
SK-MEL-5 melanoma = test system: SK-MEL-5 melanoma
TK-10 renal = test system: TK-10 renal
SNB-75 CNS = test system: SNB-75 CNS

SMILES | GI50 (HOP-62 NSCLC) | TGI (HOP-62 NSCLC) [µM] | GI50 (HCC-2998 colon) | TGI (HCC-2998 colon) [µM] | GI50 (NCI-H226 lung) | TGI (NCI-H226 lung) | GI50 (UACC-257 melanoma) [µM] | TGI (UACC-257 melanoma) [µM] | GI50 (CAKI-1 renal) | TGI (CAKI-1 renal) | GI50 (HCT-116 colon) | TGI (HCT-116 colon) | GI50 (NCI-H522 lung) | TGI (NCI-H522 lung) | GI50 (SK-MEL-5 melanoma) | TGI (SK-MEL-5 melanoma) | GI50 (TK-10 renal) [µM] | TGI (TK-10 renal) [µM] | TGI (SNB-75 CNS) [µM] | GI50 (SNB-75 CNS) [µM]
Clc1ccc(Nc2ncnc3ccccc23)cc1 | > 100 µM | > 100 | > 100 µM | > 100 | 57.2 µM | > 100 µM | 49.9 | > 100 | 13.1 µM | 61.1 µM | 81.5 µM | > 100 µM | 15.5 µM | 55.8 µM | 21.6 µM | 56.1 µM | 2.79 | 31 | – | –
Cc1ccc(NC(=O)CC2SC(=Nc3cccc(Cl)c3C)NC2=O)cc1 (configuration not stated) | – | > 100 | – | > 100 | – | – | – | > 100 | – | > 100 µM | – | – | – | – | – | 96.5 µM | – | > 100 | > 100 | –
COc1cc(/C=C(\C)c2ccc3c(c2)OCO3)cc(OC)c1OC | – | > 100 | – | > 100 | – | > 100 µM | – | > 100 | – | – | – | > 100 µM | – | 69 µM | – | 24.2 µM | – | > 100 | 37.8 | –
CCOC(=O)c1c2c(n(Cc3ccccc3)c1C)-c1nc[nH]c1C(=O)C2=O | 18.6 µM | 33.2 | – | – | 20.9 µM | 47.2 µM | 16.4 | 30 | 18.5 µM | 38.5 µM | 16 µM | 30.4 µM | 15 µM | 28.8 µM | 15.9 µM | 29.8 µM | 16.2 | 31.3 | 16.2 | 4.13
CCOC(=O)Cc1csc(Nc2nc(O)c(C3=c4ccccc4=NC3=O)s2)n1 | 20.6 µM | 39.5 | 29.8 µM | > 100 | 21.3 µM | 42.8 µM | 76.9 | > 100 | 24.3 µM | 57.2 µM | 13.6 µM | 26.5 µM | 27.2 µM | 97.6 µM | 28.5 µM | > 100 µM | 44.7 | > 100 | – | –
CO[C@@H]1[C@H](N(C)C(=O)c2ccccc2)C[C@@H]2O[C@]1(C)n1c3ccccc3c3c4c(c5c6ccccc6n2c5c31)C(=O)NC4=O | 0.382 µM | > 100 | > 100 µM | > 100 | 0.303 µM | > 100 µM | > 100 | > 100 | 0.232 µM | 2.66 µM | 0.638 µM | > 100 µM | – | – | 0.797 µM | > 100 µM | – | – | – | –
CN(CC(=O)O)S(=O)(=O)c1ccc(Cl)cc1 | – | – | – | > 100 | – | > 100 µM | – | > 100 | – | > 100 µM | – | – | – | > 100 µM | – | > 100 µM | – | > 100 | > 100 | –
NC(=S)N/N=C/c1cn(CCCl)c2ccccc12 | – | > 100 | – | – | – | – | – | > 100 | – | > 100 µM | – | > 100 µM | – | > 100 µM | – | 67.4 µM | – | > 100 | 86 | –
COC(=O)CC12CC(NC(=O)c3csc([C@@H](C[C@H](C(C)C)N(C)C(=O)[C@@H](NC(=O)[C@H]4CCCCN4C)C(C)C)OC(C)=O)n3)(C1)C2 | 0.00498 µM and 0.00838 µM | > 33.3 | 0.0303 µM and 0.0148 µM | > 33.3 | 0.00492 µM and 0.0217 µM | – | 23.7 | > 33.3 | – | – | 0.00337 µM and 0.00778 µM | > 33.3 µM | 0.00107 µM and 0.00333 µM | 0.00593 µM and 0.0149 µM | 0.00191 µM and 0.00412 µM | 0.0487 µM and 0.074 µM | 0.415 | > 33.3 | – | 0.00265
c1ccc2c(CNCCCN3CCN(CCCNCc4cccc5ccccc45)CC3)cccc2c1 | – | 34.4 | – | – | – | 7.75 µM | – | 3.34 | – | 4.02 µM | – | 2.83 µM | – | 2.99 µM | – | 3.14 µM | – | 2.95 | 3.15 | –
CC[C@@]1(O)C(=O)OCc2c1cc1n(c2=O)Cc2cc3c(OC)cccc3nc2-1 | 0.000532 µM and < 0.215 µM | – | – | – | 0.00806 µM | 0.078 µM and 0.445 µM | 0.0646 | 4.25 | 0.00503 µM and < 0.215 µM | 0.238 µM | – | > 100 µM | 0.028 µM | 2.12 µM | 0.0229 µM | 0.311 µM | – | 50 | 2.06 | 0.00687
COC(=O)Nc1nc2ccc(C(=O)C3CC3)cc2[nH]1 | 0.523 µM | > 42.2 | 0.771 µM | – | 0.423 µM | 30.2 µM | 0.417 | > 100 | 0.305 µM | > 51.6 µM | 0.438 µM | – | 0.426 µM | 16.4 µM | 0.385 µM | 6.23 µM | 1.38 | 47.2 | – | –
ClCCN(CCCl)c1ccc(OCc2ccccc2)cc1 | 4.05 µM | 30.4 | – | – | 10.3 µM | 28 µM | 6.3 | 39.6 | 0.709 µM | 66.5 µM | 6.81 µM | 26.9 µM | 4.64 µM | 21.9 µM | 6.62 µM | 20.6 µM | – | – | 12 | 1.81
O=P1(O)c2ccccc2CSCc2ccccc21 | – | > 100 | – | > 100 | – | > 100 µM | – | > 100 | – | > 100 µM | – | > 100 µM | – | > 100 µM | – | > 100 µM | – | > 100 | – | –
CCOC(=O)c1sc(Nc2cc(Cl)ccc2Cl)nc1C | – | > 100 | – | > 100 | – | > 100 µM | – | > 100 | – | – | – | > 100 µM | – | > 100 µM | – | – | – | > 100 | > 100 | –
CCCC(c1cc(C(C)(C)C)c(O)cc1C)c1cc(C(C)(C)C)c(O)cc1C | – | 8 | – | 3.3 | – | 4.53 µM | – | 5.69 | – | 15.3 µM | – | 3.96 µM | – | 5.72 µM | – | 3.26 µM | – | 9.55 | – | –
CC[C@H]1[C@@H](C)C=C[C@@H](C)N1S(=O)(=O)c1ccc(C)cc1 | – | > 100 | – | – | – | > 100 µM | – | > 100 | – | > 100 µM | – | > 100 µM | – | > 100 µM | – | > 100 µM | – | – | > 100 | –
Cc1cc2c(=O)cc(-c3ccc(Cl)c(Cl)c3)oc2c(C(=O)O)c1C | – | – | – | – | – | > 100 µM | – | > 100 | – | > 100 µM | – | > 100 µM | – | > 100 µM | – | > 100 µM | – | > 100 | > 100 | –
COc1ncnn2ccc(-c3cnc4nc(C)n(Cc5nnc(C(C)F)o5)c4c3)c12 (configuration not stated) | – | – | 0.308 µM | 2.71 | 0.156 µM | 0.949 µM | 0.265 | > 100 | 0.0613 µM | > 100 µM | 0.041 µM | > 100 µM | 0.0859 µM | 0.363 µM | – | – | 0.367 | > 100 | 1.75 | 0.191
S=C1NC(c2ccccc2)=NC(Cc2ccccc2)(c2ccccc2)N1c1ccccc1 (configuration not stated) | – | > 100 | – | > 100 | – | > 100 µM | – | > 100 | – | > 100 µM | – | > 100 µM | – | – | – | > 100 µM | – | > 100 | 57.1 | –
CN1C[C@@H]2CC(=O)CC[C@@H]2C[C@H]1C#N | – | > 100 | – | > 100 | – | > 100 µM | – | > 100 | – | > 100 µM | – | > 100 µM | – | > 100 µM | – | > 100 µM | – | – | > 100 | –
Cc1ccc([I+]c2ccc(C)cc2)cc1 | – | – | 6.44 µM | > 100 | 17.8 µM | > 100 µM | 2.71 | 57.4 | 4.55 µM | 71.4 µM | 0.821 µM | > 100 µM | 12.3 µM | > 100 µM | 0.79 µM | 3.89 µM | 6.63 | > 100 | > 100 | 7.44
Cc1cc2c(=O)cc(-c3ccc(Cl)cc3Cl)oc2c(C(=O)O)c1C | – | – | – | – | – | > 100 µM | – | > 100 | – | > 100 µM | – | > 100 µM | – | > 100 µM | – | > 100 µM | – | > 100 | > 100 | –
N#CC1(C#N)C2C=CC(C3CC=CC32)C1(C#N)C#N (configuration not stated) | – | 33.3 | – | > 50 | – | > 50 µM | – | 21 | 8.5 µM | 3.72 µM and 18.5 µM | 7.85 µM | 3.4 µM and 15.7 µM | – | 3.18 µM | 8.61 µM | 15.6 µM | – | 3.61 | – | –
CC(=O)NS(=O)(=O)c1ccc(-n2nc(-c3ccccc3)cc2-c2cc(O)ccc2O)cc1 | > 100 µM | > 100 | – | – | > 100 µM | > 100 µM | > 100 | > 100 | > 100 µM | > 100 µM | 27.2 µM | > 100 µM | 45 µM | > 100 µM | > 100 µM | > 100 µM | 10.9 | > 100 | – | –
COC1OC(CO)C(O)C(NC(=O)N(C)N=O)C1O (configuration not stated) | – | – | – | > 100 | – | > 100 µM | – | – | – | > 100 µM | – | > 100 µM | – | > 100 µM | – | > 100 µM | – | > 100 | > 100 | –
Cc1cn2c(/C=N/NC3=NCCN3)c(-c3ccc(Cl)c([N+](=O)[O-])c3)nc2s1 | 1.71 µM | 7.17 | 2.12 µM | > 50 | – | – | 1.6 | 7.24 | 1.98 µM | 10 µM | 0.949 µM | 1.72 µM | – | – | 0.989 µM | 2.3 µM | 1.05 | 2.7 | – | –
C=CCC1=C2CCCCC2CCC1=O (configuration not stated) | – | > 100 | – | – | – | – | – | > 100 | – | > 100 µM | – | > 100 µM | – | > 100 µM | – | > 100 µM | – | > 100 | > 100 | –
